Measured values from paper PMC8330742, “New benzothieno[2,3-c]pyridines as non-steroidal CYP17 inhibitors: design, synthesis, anticancer screening, apoptosis induction, and in silico ADME profile studies” (Journal of Enzyme Inhibition and Medicinal Chemistry, 2021).

Assays:
CYP17 = settings: Figure 1, known CYP17 inhibitors; cited from earlier work
SF-268 = experiment: NCI-60 SRB screen; type: cell-based, human; settings: SF-268; single dose 10^−5 M
SNB-19 = experiment: NCI-60 SRB screen; type: cell-based; settings: SNB-19; single dose 10^−5 M
CCRF-CEM = experiment: NCI-60 SRB screen; type: cell-based; settings: single dose 10^−5 M
OVCAR-4 = experiment: NCI-60 SRB screen; type: cell-based, human; settings: OVCAR-4; single dose 10^−5 M
NCI-H460 = experiment: NCI-60 SRB screen; type: cell-based, human; settings: NCI-H460; single dose 10^−5 M
HL-60(TB) = experiment: NCI-60 SRB screen; type: cell-based, human; settings: HL-60 (TB); single dose 10^−5 M
K-562 = experiment: NCI-60 SRB screen; type: cell-based, human; settings: K-562; single dose 10^−5 M
HCT-116 = experiment: NCI-60 SRB screen; type: cell-based, human; settings: HCT-116; single dose 10^−5 M
MOLT-4 = experiment: NCI-60 SRB screen; type: cell-based; settings: MOLT-4; single dose 10^−5 M
NCI/ADR-RES = experiment: NCI-60 SRB screen; type: cell-based, human; settings: single dose 10^−5 M
NCI-H23 = experiment: NCI-60 SRB screen; type: cell-based, human; settings: NCI-H23; single dose 10^−5 M
HCC-2998 = experiment: NCI-60 SRB screen; type: cell-based, human; settings: HCC-2998; single dose 10^−5 M
SK-OV-3 = experiment: NCI-60 SRB screen; type: cell-based, human; settings: SK-OV-3; single dose 10^−5 M
HOP-92 = experiment: NCI-60 SRB screen; type: cell-based, human; settings: HOP-92; single dose 10^−5 M
SNB-75 = experiment: NCI-60 SRB screen; type: cell-based, human; settings: SNB-75; single dose 10^−5 M
SK-MEL-2 = experiment: NCI-60 SRB screen; type: cell-based, human; settings: SK-MEL-2; single dose 10^−5 M
RXF 393 = experiment: NCI-60 SRB screen; type: cell-based, human; settings: RXF 393; single dose 10^−5 M
SK-MEL-5 = experiment: NCI-60 SRB screen; type: cell-based, human; settings: SK-MEL-5; single dose 10^−5 M
A498 = experiment: NCI-60 SRB screen; type: cell-based, human; settings: A498; single dose 10^−5 M
NCI-H522 = experiment: NCI-60 SRB screen; type: cell-based, human; settings: NCI-H522; single dose 10^−5 M
SW-620 = experiment: NCI-60 SRB screen; type: cell-based; settings: SW-620; single dose 10^−5 M
UO-31 = experiment: NCI-60 SRB screen; type: cell-based, human; settings: UO-31; single dose 10^−5 M
SR = experiment: NCI-60 SRB screen; type: cell-based; settings: single dose 10^−5 M
KM12 = experiment: NCI-60 SRB screen; type: cell-based, human; settings: KM12; single dose 10^−5 M
U251 = experiment: NCI-60 SRB screen; type: cell-based, human; settings: U251; single dose 10^−5 M
[1] = system: panel of 60 cancer cell lines; experiment: NCI-60 SRB screen, mean or range over the panel; type: cell-based, human; settings: mean over the cell lines; single dose 10^−5 M
UACC-62 = experiment: NCI-60 SRB screen; type: cell-based, human; settings: UACC-62; single dose 10^−5 M
SF-539 = experiment: NCI-60 SRB screen; type: cell-based, human; settings: SF-539; single dose 10^−5 M
CAKI-1 = experiment: NCI-60 SRB screen; type: cell-based, human; settings: CAKI-1; single dose 10^−5 M
HCT-15 = experiment: NCI-60 SRB screen; type: cell-based, human; settings: HCT-15; single dose 10^−5 M
ACHN = experiment: NCI-60 SRB screen; type: cell-based; settings: single dose 10^−5 M
LOX IMVI = experiment: NCI-60 SRB screen; type: cell-based, human; settings: single dose 10^−5 M
OVCAR-5 = experiment: NCI-60 SRB screen; type: cell-based, human; settings: OVCAR-5; single dose 10^−5 M
SN12C = experiment: NCI-60 SRB screen; type: cell-based, human; settings: SN 12 C; single dose 10^−5 M
SF-295 = experiment: NCI-60 SRB screen; type: cell-based, human; settings: SF-295; single dose 10^−5 M
MALME-3M = experiment: NCI-60 SRB screen; type: cell-based, human; settings: single dose 10^−5 M
NCI-H322M = experiment: NCI-60 SRB screen; type: cell-based, human; settings: single dose 10^−5 M
OVCAR-3 = experiment: NCI-60 SRB screen; type: cell-based, human; settings: OVCAR-3; single dose 10^−5 M
SK-MEL-28 = experiment: NCI-60 SRB screen; type: cell-based; settings: SK-MEL-28; single dose 10^−5 M
TK-10 = experiment: NCI-60 SRB screen; type: cell-based, human; settings: TK-10; single dose 10^−5 M
M14 = experiment: NCI-60 SRB screen; type: cell-based, human; settings: M14; single dose 10^−5 M
MDA-MB-435 = experiment: NCI-60 SRB screen; type: cell-based; settings: MDA-MB435; single dose 10^−5 M
EKVX = experiment: NCI-60 SRB screen; type: cell-based, human; settings: single dose 10^−5 M
UACC-257 = experiment: NCI-60 SRB screen; type: cell-based, human; settings: UACC-275 (so in the source); single dose 10^−5 M
HT-29 = experiment: NCI-60 SRB screen; type: cell-based; settings: HT-29; single dose 10^−5 M
COLO 205 = experiment: NCI-60 SRB screen; type: cell-based, human; settings: COLO 205; single dose 10^−5 M
IGROV1 = experiment: NCI-60 SRB screen; type: cell-based, human; settings: IGROV1; single dose 10^−5 M
HOP-62 = experiment: NCI-60 SRB screen; type: cell-based, human; settings: HOP-62; single dose 10^−5 M
RPMI-8226 = experiment: NCI-60 SRB screen; type: cell-based; settings: RPMI-8226; single dose 10^−5 M
NCI-H226 = experiment: NCI-60 SRB screen; type: cell-based, human; settings: NCI-H226; single dose 10^−5 M
OVCAR-8 = experiment: NCI-60 SRB screen; type: cell-based, human; settings: OVCAR-8; single dose 10^−5 M
A549/ATCC = experiment: NCI-60 SRB screen; type: cell-based, human; settings: single dose 10^−5 M
786-0 = experiment: NCI-60 SRB screen; type: cell-based; settings: 786-0; single dose 10^−5 M

Compound: CNC(=O)c1ccc(N2C(=S)N(c3cnc(C#N)c(C(F)(F)F)c3)C(=O)C23CCC3)cc1F [Apalutamide, apalutamide]
- IC50 (CYP17): 15 nM

Compound: Cc1ccncc1N1CCN(c2ccnc(Cl)c2)C1=O [CFG920]
- IC50 (CYP17): 23 nM

Compound: O=C1C(=Cc2cccc([N+](=O)[O-])c2)Sc2c(F)cccc21 [Compound 2d, 7-Fluoro-2-(3-nitrobenzylidene)[1]benzothiophen-3(2H)-one]
- melting point: 200 to 202 °C

Compound: O=C1Cc2c(sc3c(F)cccc23)C(c2cccc([N+](=O)[O-])c2)N1 (stereo not drawn) [Compound 3d]
- Growth inhibition (%) (SF-268): 14.60%
- Growth inhibition (%) (SNB-19): 6.23%
- Growth inhibition (%) (CCRF-CEM): 0.90%
- Growth inhibition (%) (OVCAR-4): −1.20%
- Growth inhibition (%) (NCI-H460): 0.53%
- Growth inhibition (%) (HL-60(TB)): 12.00%
- Growth inhibition (%) (K-562): 15.78%
- Growth inhibition (%) (HCT-116): 23.07%
- Growth inhibition (%) (MOLT-4): 2.90%
- Growth inhibition (%) (NCI/ADR-RES): 4.50%
- Growth inhibition (%) (NCI-H23): 1.04%
- Growth inhibition (%) (HCC-2998): −6.11%
- Growth inhibition (%) (SK-OV-3): −3.95%
- Growth inhibition (%) (HOP-92): 10.96%
- Growth inhibition (%) (SNB-75): 21.53%
- Growth inhibition (%) (SK-MEL-2): −1.12%
- Growth inhibition (%) (RXF 393): −5.23%
- Growth inhibition (%) (SK-MEL-5): 5.55%
- Growth inhibition (%) (A498): 4.88%
- Growth inhibition (%) (NCI-H522): 17.55%
- Growth inhibition (%) (SW-620): 2.40%
- Growth inhibition (%) (UO-31): 34.84%
- Growth inhibition (%) (SR): 23.81%
- Growth inhibition (%) (KM12): 3.93%
- Growth inhibition (%) (U251): 20.57%
- Mean growth inhibition (%) [1]: 6.24%
- Growth inhibition (%) (UACC-62): 14.07%
- Growth inhibition (%) (SF-539): 6.60%
- Growth inhibition (%) (CAKI-1): 21.82%
- Growth inhibition (%) (HCT-15): 21.33%
- Growth inhibition (%) (ACHN): 6.70%
- Growth inhibition (%) (LOX IMVI): 12.77%
- Growth inhibition (%) (OVCAR-5): −8.70%
- Growth inhibition (%) (SN12C): 4.04%
- Growth inhibition (%) (SF-295): 2.30%
- Growth inhibition (%) (MALME-3M): −6.36%
- Growth inhibition (%) (NCI-H322M): 2.78%
- Growth inhibition (%) (OVCAR-3): 0.09%
- Growth inhibition (%) (SK-MEL-28): −9.19%
- Growth inhibition (%) (TK-10): −52.28%
- Growth inhibition (%) (M14): 1.35%
- Growth inhibition (%) (MDA-MB-435): −3.38%
- Growth inhibition (%) (EKVX): 7.98%
- Growth inhibition (%) (UACC-257): −7.53%
- Growth inhibition (%) (HT-29): 0.03%
- Growth inhibition (%) (COLO 205): −7.27%
- Growth inhibition (%) (IGROV1): 20.45%
- Growth inhibition (%) (HOP-62): 14.32%
- Growth inhibition (%) (RPMI-8226): 29.04%
- Growth inhibition (%) (NCI-H226): 21.32%
- Growth inhibition (%) (OVCAR-8): 2.86%
- Growth inhibition (%) (A549/ATCC): −5.27%
- Growth inhibition (%) (786-0): −10.00%

Compound: C[C@]12CC[C@H](O)CC1=CC[C@@H]1[C@@H]2CC[C@]2(C)C(n3cnc4ccccc43)=CC[C@@H]12 [Galeterone]
- IC50 (CYP17): 300 nM

Compound: Oc1ccc2sc3c(c2c1)CCN(Cc1cccnc1)C3 [VIc]
- IC50 (CYP17): 20.9 nM

Compound: N#Cc1ccc2sc3c(c2c1)CCN(Cc1cccnc1)C3 [VId]
- IC50 (CYP17): 257 nM

Compound: c1ccc2c(c1)[nH]c1cc(Cc3cnc[nH]3)ccc12 [YM-116]
- IC50 (CYP17): 228 nM
